From patent US10487092B2, “Pyrazolopyridinamines as MKNK1 and MKNK2 inhibitors” (BAYER PHARMA AKTIENGESELLSCHAFT, priority 2014, dated 2019)
“Also recorded” adds a separate entry of the source.

Experiments:
[1] = tested on: human peripheral blood mononuclear cells; assay: Cell viability of human PBMCs (CellTiter-Glo Luminescent Assay); type: cell-based; conditions: IL-1β stimulated, 24 hours
Method: Human PBMCs have been isolated from anti-coagulated human whole blood donated from healthy volunteers by pre-filling Leucosep tubes with ficoll-paque (15 ml, Biochrom, order ID: L6115) and adding 20 ml whole blood. After centrifugation of the blood at 800 g for 15 min at room temperature (RT) plasma including thrombocytes has been discarded. PBMCs were transferred to a new falcon tube, washed with PBS (phosphate-buffered saline) at 250 g for 10 min at RT and resuspended in complete medium [RPMI 1640, without L-glutamine (PAA, order ID: E15-039), 10% FCS; 50 U/ml Penicillin, 50 μg/ml Streptomycin (PAA, order ID: P11-010) and 1% L-glutamine (Sigma, order ID. G7513)]. The assay was performed in a 96-well plate at a cell density of 2.5×10^5 cells/well as triplicates. […] Cell viability was measured using the CellTiter-Glo Luminescent Assay (Promega, order ID: G7571) following the manufacturers protocol. The amount of secreted TNF-α (tumor necrosis factor-alpha) in the supernatant was determined using the Human Prolnflammatory 9-Plex (MSD, order ID: K15007B) according to manufacturer's instruction. The inhibitory activity was determined as the relation to the control in percent. IC50 values were calculated using the 4-parameter logistic model.

[2] = tested on: secretion of TNF-α in human PBMCs; assay: In vitro IL-1β-induced cytokine (TNF-α) secretion of human PBMCs; type: cell-based; conditions: for IC50: PBMC, human PBMCs stimulated with 20 ng/ml IL-1β for 24 hours
Description: In Vitro IL-1β (Interleukin-1 beta, IL-1b)-Induced Cytokine Secretion of Human PBMCs (Peripheral Blood Mononuclear Cells)
The effect of the chemical compounds on the induced cytokine secretion of human PBMCs has been investigated. Here, the cytokine secretion has been induced by IL-1β which binding to its receptors leads to the activation of the MKNK signaling pathway.
Human PBMCs have been isolated from anti-coagulated human whole blood donated from healthy volunteers by pre-filling Leucosep tubes with ficoll-paque (15 ml, Biochrom, order ID: L6115) and adding 20 ml whole blood. After centrifugation of the blood at 800 g for 15 min at room temperature (RT) plasma including thrombocytes has been discarded. PBMCs were transferred to a new falcon tube, washed with PBS (phosphate-buffered saline) at 250 g for 10 min at RT and resuspended in complete medium [RPMI 1640, without L-glutamine (PAA, order ID: E15-039), 10% FCS; 50 U/ml Penicillin, 50 μg/ml Streptomycin (PAA, order ID: P11-010) and 1% L-glutamine (Sigma, order ID. G7513)]. The assay was performed in a 96-well plate at a cell density of 2.5×10^5 cells/well as triplicates. The compounds were serially diluted in DMSO and added to the PBMCs at a range of 3×10^−9 M to 1×10^−5M with a final concentration of 0.4% DMSO, respectively. Treatment of PBMCs with 0.4% DMSO was used as control. After 30 min of incubation, PBMCs were stimulated with 20 ng/ml IL-1β (R&D, order ID: 201-LB CF) for 24 hours. Cell viability was measured using the CellTiter-Glo Luminescent Assay (Promega, order ID: G7571) following the manufacturers protocol. The amount of secreted TNF-α (tumor necrosis factor-alpha) in the supernatant was determined using the Human Prolnflammatory 9-Plex (MSD, order ID: K15007B) according to manufacturer's instruction. The inhibitory activity was determined as the relation to the control in percent. IC50 values were calculated using the 4-parameter logistic model.

human full-length MKNK1 = human full-length MKNK1 (Homo sapiens (Human), UniProt Q9BUB5, T344D); assay: MKNK1 kinase high ATP assay (TR-FRET); type: biochemical; conditions: high ATP (2 mM), 15 min preincubation with enzyme; read-out: MKNK1 IC50
Sequence of human full-length MKNK1 (Q9BUB5 other isoform, or with tags, fused parts or gaps T344D): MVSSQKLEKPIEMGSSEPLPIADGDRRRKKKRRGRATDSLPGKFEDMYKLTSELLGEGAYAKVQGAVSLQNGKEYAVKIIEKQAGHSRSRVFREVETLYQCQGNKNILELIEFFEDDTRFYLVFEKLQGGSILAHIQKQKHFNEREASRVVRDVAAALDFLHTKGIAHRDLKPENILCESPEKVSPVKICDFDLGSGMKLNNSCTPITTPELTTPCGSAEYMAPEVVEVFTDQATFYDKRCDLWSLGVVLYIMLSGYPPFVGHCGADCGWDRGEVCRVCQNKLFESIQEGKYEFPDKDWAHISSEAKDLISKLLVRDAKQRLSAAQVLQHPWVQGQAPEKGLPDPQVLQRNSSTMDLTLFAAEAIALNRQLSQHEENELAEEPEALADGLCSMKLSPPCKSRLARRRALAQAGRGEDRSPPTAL
Outline: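 GST-tagged full-length MKNK1 (aa 1–424, T344D; insect-cell expressed) preincubated 15 min with compound, then reacted 30 min at 22 °C with 2 mM ATP and 0.06 μM biotinylated peptide (final) in HEPES pH 7.5 buffer. Phosphopeptide detected by TR-FRET 665/620 ratio, normalized to no-inhibitor and no-enzyme controls.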

SMILES	effect on cell viability [1]	IC50 [2]	inhibition of the secretion of TNF-α ([2]; human PBMCs stimulated with IL-1β)	IC50 (human full-length MKNK1)
CN(C)[C@H]1CCN(C(=O)[C@H]2CCc3c(sc4ncnc(Nc5ccn6nccc6c5)c34)C2)C1 [Example 41, [(3S)-3-(Dimethylamino)pyrrolidin-1-yl][(7S)-4-(pyrazolo[1,5-a]pyridin-5-ylamino)-5,6,7,8-tetrahydro[1]benzothieno[2,3-d]pyrimidin-7-yl]methanone]	no effect	10 to 100 nM	inhibition of the secretion of TNF-α; also recorded: inhibits the secretion of TNF-α in a dose dependent manner	11 nM
CN1CCN(C(=O)[C@H]2CCc3c(sc4ncnc(Nc5cc6ccnn6cc5Cl)c34)C2)CC1 [Example 65, (7S)-4-[(6-Chloropyrazolo[1,5-a]pyridin-5-yl)amino]-5,6,7,8-tetrahydro[1]benzothieno[2,3-d]pyrimidin-7-yl(4-methylpiperazin-1-yl)methanone]	–	10 to 100 nM	–	5 nM
COc1cn2nccc2cc1Nc1ncnc2sc3c(c12)CC[C@H](C(=O)NC(C)C)C3 [Example 85, (7S)-4-[(6-Methoxypyrazolo[1,5-a]pyridin-5-yl)amino]-N-(propan-2-yl)-5,6,7,8-tetrahydro[1]benzothieno[2,3-d]pyrimidine-7-carboxamide]	–	1 to 10 nM	–	4 nM
COc1cn2nccc2cc1Nc1ncnc2sc3c(c12)CC[C@H](C(=O)N(C)CC(F)F)C3 [Example 95, (7S)—N-(2,2-Difluoroethyl)-4-[(6-methoxypyrazolo[1,5-a]pyridin-5-yl)amino]-N-methyl-5,6,7,8-tetrahydro[1]benzothieno[2,3-d]pyrimidine-7-carboxamide]	–	10 to 100 nM	–	2 nM
COc1cn2nccc2cc1Nc1ncnc2sc3c(c12)CC[C@H](C(=O)N1CC(C#N)C1)C3 [Example 98, 1-((7S)-4-[(6-Methoxypyrazolo[1,5-a]pyridin-5-yl)amino]-5,6,7,8-tetrahydro[1]benzothieno[2,3-d]pyrimidin-7-ylcarbonyl)azetidine-3-carbonitrile]	–	≥ 100 nM	–	1 nM
COc1cn2nccc2cc1Nc1ncnc2sc3c(c12)CC[C@H](C(=O)N1CC(C)(O)C1)C3 [Example 100, (3-Hydroxy-3-methylazetidin-1-yl)(7S)-4-[(6-methoxypyrazolo[1,5-a]pyridin-5-yl)amino]-5,6,7,8-tetrahydro[1]benzothieno[2,3-d]pyrimidin-7-ylmethanone]	–	1 to 10 nM	–	< 1 nM
COc1cn2nccc2cc1Nc1ncnc2sc3c(c12)CC[C@H](C(=O)N1CC(N(C)C)C1)C3 [Example 102, [3-(Dimethylamino)azetidin-1-yl](7S)-4-[(6-methoxypyrazolo[1,5-a]pyridin-5-yl)amino]-5,6,7,8-tetrahydro[1]benzothieno[2,3-d]pyrimidin-7-ylmethanone]	–	10 to 100 nM	–	2 nM
COc1cn2nccc2cc1Nc1ncnc2sc3c(c12)CC[C@H](C(=O)N(C)CCO)C3 [Example 103, (7S)—N-(2-Hydroxyethyl)-4-[(6-methoxypyrazolo [1,5-a]pyridin-5-yl)amino]-N-methyl-5,6,7,8-tetrahydro[1]benzothieno[2,3-d]pyrimidine-7-carboxamide]	–	1 to 10 nM	–	3 nM
COCCN(C)C(=O)[C@H]1CCc2c(sc3ncnc(Nc4cc5ccnn5cc4OC)c23)C1 [Example 104, (7S)—N-(2-Methoxyethyl)-4-[(6-methoxypyrazolo[1,5-a]pyridin-5-yl)amino]-N-methyl-5,6,7,8-tetrahydro[1]benzothieno[2,3-d]pyrimidine-7-carboxamide]	–	1 to 10 nM	–	1 nM
COc1cn2nccc2cc1Nc1ncnc2sc3c(c12)CC[C@H](C(=O)N1CC[C@@H](N(C)C)C1)C3 [Example 106, [(3R)-3-(Dimethylamino)pyrrolidin-1-yl](7S)-4-[(6-methoxypyrazolo[1,5-a]pyridin-5-yl)amino]-5,6,7,8-tetrahydro[1]benzothieno[2,3-d]pyrimidin-7-ylmethanone]	–	1 to 10 nM	–	< 1 nM
COc1cn2nccc2cc1Nc1ncnc2sc3c(c12)CC[C@H](C(=O)N1CCN(C)CC1)C3 [Example 113, (7S)-4-[(6-Methoxypyrazolo[1,5-a]pyridin-5-yl)amino]-5,6,7,8-tetrahydro[1]benzothieno[2,3-d]pyrimidin-7-yl(4-methylpiperazin-1-yl)methanone]	–	10 to 100 nM	–	1 nM
COc1cn2nccc2cc1Nc1ncnc2sc3c(c12)CC[C@H](C(=O)N1CCOCC1)C3 [Example 116, (7S)-4-[(6-Methoxypyrazolo[1,5-a]pyridin-5-yl)amino]-5,6,7,8-tetrahydro[1]benzothieno[2,3-d]pyrimidin-7-yl(morpholin-4-yl)methanone]	–	10 to 100 nM	–	1 nM
COc1cn2nccc2cc1Nc1ncnc2sc3c(c12)CC[C@H](C(=O)N1CCOC[C@@H]1C)C3 [Example 125, (7S)-4-[(6-Methoxypyrazolo[1,5-a]pyridin-5-yl)amino]-5,6,7,8-tetrahydro[1]benzothieno[2,3-d]pyrimidin-7-yl[(3S)-3-methylmorpholin-4-yl]methanone]	–	≥ 100 nM	–	1 nM
